Patent US11607426B2, “Method of targeting oncolytic viruses to tumors” (UNIVERSITY OF SOUTH FLORIDA, priority 2016, dated 2023)
Where two headings read alike, the source gives them in different places.

Columns and labels:
PBMCs = type: cell-based, human
RSV = RSV infection (viral titers) in 1-MT or vitamin K3 treated human MSCs; type: cell-based, respiratory syncytial virus; conditions: human MSCs treated with 1-MT or vitamin K3
hMSCs = experiment: Boyden chamber invasion assay, hMSC migration towards LLC1 cells; conditions: media containing 1MT, 24 hours coculture
Description: Migrated MSCs were counted after 24 h.
To test the effect of 1-MT on the migratory capacity of hMSCs the inventors used a Boyden chamber invasion assay with Lewis lung carcinoma (LLC1) cells in the bottom chamber to produce trophic factors. MSCs were seeded on the top of a matrigel layer above a PET membrane with 8.0 μm pores (BD Bioscience) and treated with control MSC media or media containing 1MT. Cells were cocultured for 24 hours before fixation in 4% paraformaldehyde in PBS. Upper matrigel layer was removed by cue tip and migrant cells were visualized and counted by Giemsa staining.

IDO = IDO (Homo sapiens, UniProt P14902); type: cell-based; conditions: RSV-infected MSCs treated with 1 mM 1-MT or 10 μM vitamin K3
IDO, sequence (P14902 whole entry): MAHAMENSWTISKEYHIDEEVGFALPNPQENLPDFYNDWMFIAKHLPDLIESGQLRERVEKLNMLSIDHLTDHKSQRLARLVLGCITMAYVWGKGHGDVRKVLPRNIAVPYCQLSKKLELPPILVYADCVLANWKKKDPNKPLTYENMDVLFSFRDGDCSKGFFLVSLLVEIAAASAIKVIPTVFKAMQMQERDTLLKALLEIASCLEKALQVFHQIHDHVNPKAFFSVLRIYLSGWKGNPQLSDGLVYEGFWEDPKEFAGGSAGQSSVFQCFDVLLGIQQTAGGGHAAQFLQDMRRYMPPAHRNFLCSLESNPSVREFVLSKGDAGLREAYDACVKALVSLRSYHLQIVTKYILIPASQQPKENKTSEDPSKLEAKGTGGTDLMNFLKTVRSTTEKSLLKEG

Row | Compound | effect on inhibition of PBMC proliferation by RSV-infected MSC conditioned medium (CFSE dye dilution) (PBMCs) | RSV infection as determined by viral titers (RSV) | migration of hMSC towards LLC1 cells (hMSCs) | effect on inhibition of PBMC proliferation by RSV-infected MSC conditioned medium (CFSE dye dilution) (PBMCs; 1 mM 1-MT or 10 μM vitamin K3, PHA, 5 days, flow cytometry) | kynurenine levels (IDO)
1 | Cn1cc(C[C@H](N)C(=O)O)c2ccccc21 [1-MT, 1-methyltryptophan] | abolished the negative effect on PBMC proliferation | did not reduce RSV infection | did not inhibit migration |  | 
2 | CC1=CC(=O)c2ccccc2C1=O [vitamin K3] |  | did not reduce RSV infection |  | abolished the negative effect on PBMC proliferation | reduced kynurenine levels
